From PMC12775434, “Ultra-large virtual screening unveils potent agonists of the neuromodulatory orphan receptor GPR139” (Nature Communications, 2025)
Where “and” joins values, the source holds several entries; their conditions need not be identical. Equal entries are not always repeated.

Key:
GPR139 [1] = target: T1, GPR139 (Homo sapiens, UniProt Q6DWJ6); assay: Ca2+ mobilization assay, agonist mode, stable GPR139-CHOk1 cell line; type: cell-based
T1 sequence (Q6DWJ6 1-353): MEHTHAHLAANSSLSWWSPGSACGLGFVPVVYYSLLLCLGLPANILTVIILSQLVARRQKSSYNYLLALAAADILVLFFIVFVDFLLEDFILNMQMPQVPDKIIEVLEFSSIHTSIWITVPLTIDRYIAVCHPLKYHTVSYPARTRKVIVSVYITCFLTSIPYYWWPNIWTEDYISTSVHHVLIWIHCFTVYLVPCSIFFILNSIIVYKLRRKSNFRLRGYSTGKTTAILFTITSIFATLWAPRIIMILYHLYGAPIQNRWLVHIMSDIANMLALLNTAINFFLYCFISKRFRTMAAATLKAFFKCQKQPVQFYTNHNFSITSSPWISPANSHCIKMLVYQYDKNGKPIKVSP
Procedure: Primary screening and pharmacological characterization of compounds were performed using a CHO-K1 cell line that stably expresses human GPR139 (GPR139-CHOk1). The GPR139-CHOk1 cell line was kindly provided by H. Lundbeck A/S, Denmark[24]. GPR139-CHOk1 cells were grown in Ham’s F-12 Kaighn’s Modification Medium (ThermoFisher #21127030) supplemented with 10% dialyzed fetal bovine serum (US origin, ThermoFisher #26400044), 100 units/mL Penicillin-Streptomycin (ThermoFisher #15140122), and 1 mg/mL Geneticin (ThermoFisher #11811031). […] M1R-CHOk1 cells were purchased from The Missouri S&T cDNA Resource Center (#CEM100TN00). M1R-CHOk1 cells were grown in Ham’s F12 Medium (ThermoFisher #21765029) supplemented with 10% fetal bovine serum (Brazilian origin, ThermoFisher #10270106), 100 units/mL Penicillin-Streptomycin, and 0.25 mg/mL Geneticin. HEK293A cells transiently transfected with GPR139 were used for additional pharmacological assessment of signaling pathways activated by GPR139. HEK239A cells were generously provided by Dr. Asuka Inoue, Tohoku University, Japan. HEK293A cells were grown in Dulbecco’s Modified Eagle Medium (ThermoFisher #31966047) supplemented with 10% dialyzed fetal bovine serum and 100 units/mL Penicillin-Streptomycin. Cell lines were maintained at 37 °C in humidified incubator equilibrated with 5% CO2.
(§1) 30,000 GPR139- or M1R-CHOk1 cells/well were seeded in black clear bottom tissue culture treated 96-well plates (Greiner #655090) and grown for 20–24 h. Cells were washed with HEPES buffer (Hank’s Balanced Salt Solution (HBBS) supplemented with 20 mM HEPES, 1 mM MgCl2, and 1 mM CaCl2; pH 7.4). Cells were loaded with 50 µL of 2 µM Fluo-4 AM dye (ThermoFisher #F14202) in HEPES buffer supplemented with 2.5 mM probenecid and 0.01% Pluronic F-68 (ThermoFisher #24040032) for 1 h at 37 °C. Cells were washed with HEPES buffer. 50 µL HEPES buffer supplemented with 2.5 mM probenecid was added, and the cells were incubated for 10 min at 37 °C before measurement. 50 µL test compounds diluted in HEPES buffer from DMSO stocks (final DMSO concentration of maximally 0.3%) were added automatically after baseline measurements. The intracellular calcium mobilization was measured on a FlexStation 3 Multimode Microplate Reader (Molecular Devices) at 37 °C with filters for excitation of 485 nm and emission of 525 nm.
(§2) Our primary compound screening protocol consisted of two subsequent steps that allowed to screen for agonists and antagonists simultaneously. In the first step, the screening compounds were applied at 10 µM to test for agonist activity (agonist mode). Following 20 min incubation with the compounds added in the first step, in the second step, an EC80 concentration (800 nM) of the reference agonist Lundbeck Cmp 1a was applied to test for antagonist activity (antagonist mode).
Pharmacological data and statistical analyses were performed in GraphPad Prism v9–10 (Graphpad Software Inc., San Diego, CA), which are also specifically described in the figure and table legends. The functional assay responses were normalized to buffer (0%) and Lundbeck Cmp 1a or JNJ-63533054 (100%), for Ca^2+ and IP1 experiments in the GPR139-CHOk1 stable cell line or Ca^2+, G protein activation, and arrestin-3 recruitment experiments in the HEK293A cells transiently transfected with GPR139, respectively. Data are from at least three independent experiments, unless stated otherwise. Concentration-response curves were fitted applying non-linear regression using the log (agonist) versus response model with variable slope. ANOVA was applied for comparing results and determining statistical significance.

GPR139 [2] = target: T1, GPR139; assay: Ca2+ mobilization assay, antagonist mode (EC80 800 nM Lundbeck Cmp 1a after 20 min preincubation), GPR139-CHOk1; type: cell-based
Procedure: as §1
as §2, with “(antagonist mode). In the agonist mode (first step) response is seen only with compounds having agonist activity (Cmp 1a), but not with non-receptor-binding compounds (Vehicle) or antagonists (NCRW0105-E06) (Supplementary Fig. 14). […] No antagonist compounds were identified in this study.” for “(antagonist mode).”

[3] = Agonist mode, individual replicates (Supplementary Figure 1)
[4] = individual replicates (Supplementary Figure 1)

Row | SMILES | Ca2+ signal (% of Cmp 1a) (GPR139 [1]; [3]) | Ca2+ signal (% of Cmp 1a) (GPR139 [2]; [4]) | Ca2+ signal (% of Cmp 1a) (GPR139 [1]; primary screen, 10 µM compound, agonist mode, three columns = independent experiments) | Ca2+ signal (% of Cmp 1a) (GPR139 [1]; Agonist mode, individual replicates (Supplementary Figure 4)) | Ca2+ signal (% of Cmp 1a) (GPR139 [2]; individual replicates (Supplementary Figure 4))
1 | Cc1cccc(-c2nc(C(=O)N3CCc4ncccc43)c(C)[nH]2)c1 [Compound 27, CC=1NC(=NC1C(=O)N2CCC=3N=CC=CC23)C=4C=CC=C(C)C4] | -4.28 % of Cmp 1a and 11 % of Cmp 1a and 2.44 % of Cmp 1a | 81.7236 % of Cmp 1a and 71.1235 % of Cmp 1a and 80.4014 % of Cmp 1a | – | – | –
2 | C[C@@H](NC(=O)CSc1nnc(C(F)(F)F)s1)c1ccccc1 [Compound 54, C[C@@H](NC(=O)CSC1=NN=C(S1)C(F)(F)F)C=2C=CC=CC2] | 0.563 % of Cmp 1a and 1.54 % of Cmp 1a and 23 % of Cmp 1a | 75.2455 % of Cmp 1a and 70.4918 % of Cmp 1a and 82.6113 % of Cmp 1a | – | – | –
3 | O=C(Nc1ccnc(-c2ccccc2)n1)C1COc2ccccc21 (stereo not shown) [Compound 31, O=C(NC=1C=CN=C(N1)C=2C=CC=CC2)C3COC=4C=CC=CC34] | -5 % of Cmp 1a and 0.292 % of Cmp 1a and -0.778 % of Cmp 1a | 69.7439 % of Cmp 1a and 83.7645 % of Cmp 1a and 84.6387 % of Cmp 1a | – | – | –
4 | C[C@@H](NC(=O)CSc1nc2cc(Cl)cnc2[nH]1)c1ccccc1 [Compound 63, C[C@@H](NC(=O)CSC1=NC=2C=C(Cl)C=NC2N1)C=3C=CC=CC3] | 14 % of Cmp 1a and 5 % of Cmp 1a and 16 % of Cmp 1a | 69.704 % of Cmp 1a and 80.7602 % of Cmp 1a and 71.5084 % of Cmp 1a | – | – | –
5 | CCN(C(=O)c1cc(Cc2ccccc2)n[nH]1)c1ccc(F)cc1 [Compound 62, CCN(C(=O)C1=CC(CC=2C=CC=CC2)=NN1)C=3C=CC(F)=CC3] | 3 % of Cmp 1a and 5.34 % of Cmp 1a and 3.55 % of Cmp 1a | 74.8769 % of Cmp 1a and 70.0616 % of Cmp 1a and 70.7351 % of Cmp 1a | 3 % of Cmp 1a and 5.34 % of Cmp 1a and 3.55 % of Cmp 1a | – | –
6 | CN(Cc1ncc(Cl)n1C)c1nc2cc([N+](=O)[O-])ccc2[nH]1 [Compound 40, CN(CC1=NC=C(Cl)N1C)C2=NC=3C=C(C=CC3N2)[N+](=O)[O-]] | -0.934 % of Cmp 1a and 6 % of Cmp 1a and 11 % of Cmp 1a | 84.3072 % of Cmp 1a and 83.9821 % of Cmp 1a and 105.029 % of Cmp 1a | – | – | –
7 | Cn1ccc(CNC(=O)Nc2cc(-c3cc(F)cc(F)c3)nn2C)c1 [Compound 39, CN1C=CC(CNC(=O)NC2=CC(=NN2C)C=3C=C(F)C=C(F)C3)=C1] | -2.56 % of Cmp 1a and -1.6 % of Cmp 1a and -1.54 % of Cmp 1a | 63.6266 % of Cmp 1a and 84.5465 % of Cmp 1a and 97.4779 % of Cmp 1a | – | – | –
8 | COc1ccc(OCc2nc(CC(=O)NC(C)c3ccccc3)no2)cc1 (stereo not shown) [Compound 1.37, COC1=CC=C(OCC2=NC(CC(NC(C3=CC=CC=C3)C)=O)=NO2)C=C1] | – | – | – | 65 % of Cmp 1a and 55 % of Cmp 1a and 21 % of Cmp 1a | 36 % of Cmp 1a and 40 % of Cmp 1a and 37 % of Cmp 1a
9 | O=C(CCn1nnc2ccccc2c1=O)Nc1ccc(F)c(F)c1F [Compound 33, FC=1C=CC(NC(=O)CCN2N=NC=3C=CC=CC3C2=O)=C(F)C1F] | -1.58 % of Cmp 1a and 1 % of Cmp 1a and 18 % of Cmp 1a | 80.4976 % of Cmp 1a and 74.4333 % of Cmp 1a and 82.6399 % of Cmp 1a | – | – | –
10 | Cc1nn(C)c2nc(C(=O)N[C@@H](C)c3ccccc3)ccc12 [Compound 15, C[C@H](NC(=O)C=1C=CC=2C(C)=NN(C)C2N1)C=3C=CC=CC3] | -11 % of Cmp 1a and 0.224 % of Cmp 1a and 7.56 % of Cmp 1a | 88.3523 % of Cmp 1a and 83.7132 % of Cmp 1a and 99.0735 % of Cmp 1a | – | – | –
11 | CC(NC(=O)N(C)Cc1cccc(N(C)C)c1)c1csnn1 (stereo not shown) [Compound 50, CC(NC(=O)N(C)CC=1C=CC=C(C1)N(C)C)C2=CSN=N2] | -2.47 % of Cmp 1a and 0.0154 % of Cmp 1a and -4 % of Cmp 1a | 75.065 % of Cmp 1a and 68.1289 % of Cmp 1a and 85.7156 % of Cmp 1a | – | – | –
12 | Cc1ccc(C(C)NC(=O)Nc2ccc3c(c2)CCCC3=O)o1 (stereo not shown) [Compound 49, CC(NC(=O)NC=1C=CC=2C(=O)CCCC2C1)C3=CC=C(C)O3] | 20 % of Cmp 1a and 6 % of Cmp 1a and 32 % of Cmp 1a | 51.3038 % of Cmp 1a and 78.2883 % of Cmp 1a and 60.6272 % of Cmp 1a | – | – | –
13 | CC(Sc1nnc(C(C)(C)C)[nH]1)C(=O)NC(C)c1ccccc1 (stereo not shown) [Compound 51, CC(NC(=O)C(C)SC1=NN=C(N1)C(C)(C)C)C=2C=CC=CC2] | -5 % of Cmp 1a and -3 % of Cmp 1a and 10 % of Cmp 1a | 68.4513 % of Cmp 1a and 72.762 % of Cmp 1a and 87.4722 % of Cmp 1a | – | – | –
14 | CC(NC(=O)N1CCCCC1c1cnn(C)c1)c1nccs1 (stereo not shown) [Compound 34, CC(NC(=O)N1CCCCC1C=2C=NN(C)C2)C3=NC=CS3] | -1.66 % of Cmp 1a and 6.32 % of Cmp 1a and -6 % of Cmp 1a | 69.32 % of Cmp 1a and 71.8073 % of Cmp 1a and 90.0552 % of Cmp 1a | – | – | –
15 | Cc1ccc(-c2nc(CC(=O)NCc3ccccc3)cs2)cc1 [Compound 68, CC=1C=CC(=CC1)C2=NC(CC(=O)NCC=3C=CC=CC3)=CS2] | -9 % of Cmp 1a and 15 % of Cmp 1a and 19 % of Cmp 1a | 60.0488 % of Cmp 1a and 59.0311 % of Cmp 1a and 102.015 % of Cmp 1a | – | – | –
16 | C[C@H](NC(=O)C1(OCc2ccccc2)CCOCC1)c1ccccc1 [Compound 26, C[C@H](NC(=O)C1(CCOCC1)OCC=2C=CC=CC2)C=3C=CC=CC3] | 2.84 % of Cmp 1a and -5 % of Cmp 1a and 4.48 % of Cmp 1a | 89.3069 % of Cmp 1a and 86.2472 % of Cmp 1a and 83.3433 % of Cmp 1a | – | – | –
17 | Cc1cc2c(=O)n(CC(O)C(C)c3ccccc3)cnc2cc1F (stereo not shown) [Compound 48, CC(C(O)CN1C=NC=2C=C(F)C(C)=CC2C1=O)C=3C=CC=CC3] | 3.29 % of Cmp 1a and 10 % of Cmp 1a and 6 % of Cmp 1a | 94.1087 % of Cmp 1a and 84.538 % of Cmp 1a and 82.6111 % of Cmp 1a | – | – | –
18 | Cc1nnsc1C(=O)N1CCCC1c1nc2cc(Cl)ccc2[nH]1 (stereo not shown) [Compound 38, CC=1N=NSC1C(=O)N2CCCC2C3=NC=4C=C(Cl)C=CC4N3] | 1.3 % of Cmp 1a and 1.18 % of Cmp 1a and -5.34 % of Cmp 1a | 85.3922 % of Cmp 1a and 96.4303 % of Cmp 1a and 86.2753 % of Cmp 1a | – | – | –
